Measured values from patent publication US9757408B2 (Hayashibara Co., Ltd., priority 2010, dated 2017).
In brackets after ≈: the same amount, converted by molar mass. Marks after values point to notes of the source that are not given here.

Columns and labels:
[1] = system: lipopolysaccharide (LPS)-induced endotoxin shock mice; assay: LPS-induced endotoxin shock mice, survival, ANO i.v. simultaneously with LPS (Experiment 1); format: in vivo, BALB/c mice; conditions: LPS 15 mg/kg i.p.; for Survival rate (%) of mice, 7 Hours: 7 hours after LPS; for Survival rate (%) of mice, 19 Hours: 19 hours after LPS; for Survival rate (%) of mice, 26 Hours: 26 hours after LPS; for Survival rate (%) of mice, 43 Hours: 43 hours after LPS
Experimental: USA, which had been dissolved in phosphate buffered saline (PBS) (Experiment groups 1 to 3). […] To the remaining five heads of another one group were intravenously administered with 0.2 mL/head of PBS simultaneously with the LPS administration (Experiment group 1). For each group, the survival number of mice was macroscopically observed up to 7 to 43 hours after the LPS administration, and based on this, the survival rate was determined for each group. The survival rate (%) of mice for each group was calculated by dividing the survival number of mice at each observation time with the survival number of mice at the initiation of this experiment, and multiplying the obtained value by 100.

[2] = system: IL-6 in serum of mice administered with LPS; assay: Serum IL-6 in LPS-administered mice, oral administration (Experiment 11); format: in vivo, BALB/c mice; conditions: LPS 18 mg/kg i.p., serum 90 min after LPS
Experimental: (§1) The seven mice in another one group were orally administered through a gastric tube with 3′-glucosyl-adenosine N1-oxide, which had been dissolved in PBS, at a dose of 200 mg/kg body weight in a liquid volume of 0.2 mL/head (Experiment group 4). The seven mice in the remaining one group were orally administered through a gastric tube with PBS in a liquid volume of 0.2 mL/head (Experiment group 1). All the mice were intraperitoneally administered with an LPS specimen derived from E. coli (055:B5), commercialized by Sigma-Aldrich Corporation, St. Louis, Mo. USA, which had been dissolved in PBS, at a dose of 18 mg/kg body weight (Experiment groups 1 to 4). For each group, the mice were collected blood from their tail veins at 90 min after administering LPS, followed by assaying the concentrations of TNF-α, IL-6, and IL-10 contained in serum by the same method as in […].

[3] = system: IL-10 in serum of mice administered with LPS; assay: Serum IL-10 in LPS-administered mice, oral administration (Experiment 11); format: in vivo, BALB/c mice; conditions: LPS 18 mg/kg i.p., serum 90 min after LPS
Experimental: as §1

NHDF cells = assay: Cell survival rate of NHDF cells after hydrogen peroxide oxidant stress (Experiment 18); format: cell-based, human
Experimental: To the wells, which had not been treated with hydrogen peroxide, was added 100 μL/well of Hanks' solution. […] Thereafter, the supernatant in each well was removed by sucking, and “CELL COUNTING KIT-8”, a product name of a reagent solution for counting viable cells, commercialized by Dojindo Molecular Technologies, Inc., Kumamoto, Japan, which had been diluted with D-MEM medium supplemented with 10% FCS by 20-times, was added to the wells in an amount of 100 μL/well, followed by incubating the cells in a 5% v/v CO2 incubator at 37° C. for two hours. Finally, the microplates were measured for absorbance at a wavelength of 450 nm on a plate reader. For each well, a relative absorption value was determined when the absorbance of a well of NHDF cells, which had been cultured by the addition of only medium, was regarded as 100, and it is expressed as a cell survival rate (%) in Table 21.

BALB/c mice = assay: Acute toxicity test, intraperitoneal (Experiment 20); conditions: mouse, in vivo, ip
Experimental: As a control, only PBS was intraperitoneally administered to 10 BALB/c mice (6-week-old, female, average weight of 20 g, commercialized by Charles River Laboratories Japan Inc., Tokyo, Japan) at a dose of 1 mL/head, followed by observing the course of the mice for 24 hours.

[4] = system: skin of volunteers irradiated with ultraviolet rays; assay: Volunteer test of creams: pigmentation (visual score, melanin index) after ultraviolet rays; format: in vivo, human; conditions: cream thrice a day for 28 days
Experimental: Melanin index was measured on “CM-700d”, a spectrophotometer commercialized by Konica Minolta Holdings, Inc., Tokyo, Japan.
In was confirmed that there were no spots and wounds in the inside of the left upper arm in each volunteer. On the day of initiating the test, four sites in the test part of each volunteer were irradiated with 1.5-times of the minimum erythemogenic dose of ultraviolet rays (UVB). The area of the irradiated site was in the range of 1×1 cm applied with each test sample. […]
From the day of initiating the irradiation of ultraviolet rays until seven days after the initiation, the test parts were visually observed and photographed by a digital camera every day, and the day, on which the erythema in the part irradiated with ultraviolet rays become unobserved, was confirmed and the days until the unobserved day for each creams were averaged and shown in Table 26. At 24 hours after the irradiation of ultraviolet rays, the degree of erythema in the part applied with each cream was scored based on the three grades of “strong (2)”, “no difference (0)”, and “weak (−2)” compared to the part applied with Cream 3, summed up the scores for each cream, and averaged. […] On 28 days after initiating the irradiation of ultraviolet rays, visual judgement on the part irradiated with ultraviolet rays and the melanin index were measured to confirm the degree of pigmentation. […]

physchem = conditions: aqueous buffer

SMILES: Nc1c2ncn([C@@H]3O[C@H](CO)[C@@H](O)[C@H]3O)c2nc[n+]1[O-] [ANO, adenosine N1-oxide]
- Survival rate (%) of mice, 7 Hours ([1]; ANO 15 mg/kg body weight i.v.): 100%
- Survival rate (%) of mice, 19 Hours ([1]; ANO 15 mg/kg body weight i.v.): 100%
- Survival rate (%) of mice, 26 Hours ([1]; ANO 15 mg/kg body weight i.v.): 80%
- Survival rate (%) of mice, 43 Hours ([1]; ANO 15 mg/kg body weight i.v.): 80%
- Survival rate (%) of mice, 7 Hours ([1]; ANO 45 mg/kg body weight i.v.): 100%
- Survival rate (%) of mice, 19 Hours ([1]; ANO 45 mg/kg body weight i.v.): 100%
- Survival rate (%) of mice, 26 Hours ([1]; ANO 45 mg/kg body weight i.v.): 100%
- Survival rate (%) of mice, 43 Hours ([1]; ANO 45 mg/kg body weight i.v.): 80%
- Amount of IL-6 ([2]; oral 100 mg/kg): 17.5 ng/mL
- Amount of IL-6 ([2]; oral 200 mg/kg): 16.0* ng/mL
- Amount of IL-10 ([3]; oral 100 mg/kg): 5.6* ng/mL
- Amount of IL-10 ([3]; oral 200 mg/kg): 9.7** ng/mL
- Cell survival rate (NHDF cells; addition of hydrogen peroxide: No, 3.12 μM): 100%
- Cell survival rate (NHDF cells; addition of hydrogen peroxide: No, 6.25 μM): 100%
- Cell survival rate (NHDF cells; addition of hydrogen peroxide: No, 12.5 μM): 100%
- Cell survival rate (NHDF cells; addition of hydrogen peroxide: No, 25.0 μM): 100%
- Cell survival rate (NHDF cells; addition of hydrogen peroxide: Yes, 3.1 μM): 35%
- Cell survival rate (NHDF cells; addition of hydrogen peroxide: Yes, 6.3 μM): 81%
- Cell survival rate (NHDF cells; addition of hydrogen peroxide: Yes, 12.5 μM): 83%
- Cell survival rate (NHDF cells; addition of hydrogen peroxide: Yes, 25.0 μM): 89%
- influence on the cell survival rate without hydrogen peroxide (NHDF cells; concentrations used in this experiment (Experiment groups 7 to 10)): No influence
- Cell survival rate (NHDF cells; hydrogen peroxide 200 μM, then ANO 25 μM for 24 hours, medium only = 100): 89%
- LD50 (BALB/c mice): ≥ 1,000 mg/kg body weight
- change in appearance after administration (BALB/c mice): no change in appearance
- safeness when applied to the skin (red flare, eczema) [4]: induced no red flare, eczema, etc.
- solubility (physchem): ~20 mg/mL (≈ 70.6 mM)
